Measurements: US20120157494A1, “ISOINDOLYL COMPOUNDS” (priority 2010, published 2012)

What was measured:
hP2X7 = molecular target: T1, hP2X7 (Homo sapiens, UniProt Q99572); test: Intracellular Calcium Flux (FLIPR) Assay; assay type: cell-based; conditions: 1321N1 cells stably expressing human P2X7; agonist 100 μM BzATP; 20 min equilibration with antagonist; read-out: FLIPR pIC50 hP2X7-1321n1 (converted)
T1 construct: 1321N1 cells stably expressing the full length human P2X7 gene (1321N1-hP2X7); expressed in transfected cells
T1 sequence (Q99572 1-595): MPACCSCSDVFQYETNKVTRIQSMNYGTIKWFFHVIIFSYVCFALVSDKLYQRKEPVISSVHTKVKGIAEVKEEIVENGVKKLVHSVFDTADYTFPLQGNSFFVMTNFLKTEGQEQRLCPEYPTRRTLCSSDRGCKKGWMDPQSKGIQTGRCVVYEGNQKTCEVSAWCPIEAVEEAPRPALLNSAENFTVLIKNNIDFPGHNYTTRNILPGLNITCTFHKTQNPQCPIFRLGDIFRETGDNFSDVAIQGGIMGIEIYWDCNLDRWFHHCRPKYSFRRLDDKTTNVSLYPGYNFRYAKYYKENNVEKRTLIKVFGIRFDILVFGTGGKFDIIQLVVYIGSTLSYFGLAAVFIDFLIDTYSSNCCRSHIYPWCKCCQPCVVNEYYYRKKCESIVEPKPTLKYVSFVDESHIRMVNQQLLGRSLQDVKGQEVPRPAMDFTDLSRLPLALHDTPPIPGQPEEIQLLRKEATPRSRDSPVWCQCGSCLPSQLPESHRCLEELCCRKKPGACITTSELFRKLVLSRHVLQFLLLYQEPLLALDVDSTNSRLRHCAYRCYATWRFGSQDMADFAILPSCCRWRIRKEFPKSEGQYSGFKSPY
Procedure: Stock solutions of compounds were prepared from powders as a 10 mM DMSO stock solution. These solutions were stored at RT during the two week period of these experiments to prevent freeze-thaw of the DMSO stocks. The DMSO stocks were added to the appropriate assay buffer at a concentration of 10 μM, and then diluted serially to the final concentrations that were tested. No observable precipitate was formed at any time during this process. The aqueous solutions of compounds as well as ATP (Sigma A7699) and BzATP (Sigma B6396) were prepared fresh for each day of experiment.
1321N1 cells stably expressing the full length human P2X7 gene (1321N1-hP2X7) and HEK293 cells stably expressing the full length rat P2X7 gene (HEK293-rP2X7) were obtained from the Roche Cell Culture Facility. 1321N1-hP2X7 cells were grown in Dulbecco's Modified Eagle's Medium (DMEM) high glucose supplemented with 10% FBS and 250 μg/mL G418. HEK293-rP2X7 cells were grown in DMEM/F-12 supplemented with 10% FBS, 1 mM CaCl2, 2 mM MgCl2, 2 mM L-Glutamine and 500 μg/ml G418. Cells were split such that they never became >70% confluent.
On the day prior to the experiment, 1321N1-hP2X7 or HEK293-rP2X7 cells were released into suspension with calcium-free PBS+Versene and washed by centrifugation with calcium-free PBS to remove the Versene. Cells were resuspended in growth medium at a density of 2.5×10^5 cells/mL and seeded into black walled, clear bottom 96 well plates (50,000 cells/well) approximately 18 hr prior to intracellular calcium flux experiments.
On the day of the experiment, plates were washed with FLIPR buffer (calcium- and magnesium-free Hank's Balanced Salt Solution (HBSS) supplemented with 10 mM Hepes, 2.5 mM probenecid and 2 mM calcium chloride) using a BIO-TEK 96 channel plate washer and incubated with […] fluo-3 dye at 37° C. for one hr. The dye was then removed by plate washing and the cells were allowed to equilibrate for 20 min at room temperature with antagonist or vehicle (FLIPR buffer). Agonist (100 μM BzATP final concentration for hP2X7; 5 μM BzATP final concentration or rP2X7) was added online with the FLIPR and fluorescence measurements made at 1 sec intervals for 60 sec followed by 3 sec intervals for a further 4 min (5 min total). A final addition of 5 μM ionomycin was made and the maximal BzATP-evoked fluorescence normalized to the maximal ionomycin-evoked fluorescence.

IC50 (hP2X7) [nM]	melting point [°C]	Structure (SMILES)
155	–	COc1ccccc1CNC(=O)C1CCCN(c2cccc3c2C(=O)N(Cc2ccncc2)C3=O)C1 (centres unmarked) [Compound I-1a, 1-(1,3-Dioxo-2-pyridin-4-ylmethyl-2,3-dihydro-1H-isoindol-4-yl)-piperidine-3-carboxylic acid 2-methoxy-benzylamide]
55	–	COc1ccccc1CNC(=O)[C@@H]1CCCN(c2cccc3c2C(=O)N(Cc2ccncc2)C3=O)C1 [Compound I-1b, (R)-1-(1,3-Dioxo-2-pyridin-4-ylmethyl-2,3-dihydro-1H-isoindol-4-yl)-piperidine-3-carboxylic acid 2-methoxy-benzylamide]
741	–	COc1ccccc1CNC(=O)[C@H]1CCCN(c2cccc3c2C(=O)N(Cc2ccncc2)C3=O)C1 [Compound I-2, (S)-1-(1,3-Dioxo-2-pyridin-4-ylmethyl-2,3-dihydro-1H-isoindol-4-yl)-piperidine-3-carboxylic acid 2-methoxy-benzylamide]
355	–	COc1ccccc1CNC(=O)[C@@H]1CCCN(c2cccc3c2C(=O)N(CC2CCOCC2)C3=O)C1 [Compound I-5, (R)-1-[1,3-Dioxo-2-(tetrahydro-pyran-4-ylmethyl)-2,3-dihydro-1H-isoindol-4-yl]-piperidine-3-carboxylic acid 2-methoxy-benzylamide]
417	–	COc1ccccc1CNC(=O)[C@@H]1CCCN(c2cccc3c2C(=O)N(Cc2cncs2)C3=O)C1 [Compound I-6, (R)-1-(1,3-Dioxo-2-thiazol-5-ylmethyl-2,3-dihydro-1H-isoindol-4-yl)-piperidine-3-carboxylic acid 2-methoxy-benzylamide]
851	197 to 198	O=C(NCc1ccccc1OC(F)(F)F)[C@@H]1CCCN(c2cccc3c2C(=O)N(Cc2ccncc2)C3=O)C1 [Compound I-7, (R)-1-(1,3-Dioxo-2-pyridin-4-ylmethyl-2,3-dihydro-1H-isoindol-4-yl)-piperidine-3-carboxylic acid 2-trifluoromethoxy-benzylamide]
955	194 to 195	CCOc1ccccc1CNC(=O)[C@@H]1CCCN(c2cccc3c2C(=O)N(Cc2ccncc2)C3=O)C1 [Compound I-9, (R)-1-(1,3-Dioxo-2-pyridin-4-ylmethyl-2,3-dihydro-1H-isoindol-4-yl)-piperidine-3-carboxylic acid 2-ethoxy-benzylamide]
182	199 to 200	COc1cccc(CNC(=O)[C@@H]2CCCN(c3cccc4c3C(=O)N(Cc3ccncc3)C4=O)C2)c1OC [Compound I-10, (R)-1-(1,3-Dioxo-2-pyridin-4-ylmethyl-2,3-dihydro-1H-isoindol-4-yl)-piperidine-3-carboxylic acid 2,3-dimethoxy-benzylamide]
30.9	–	CSc1ccccc1CNC(=O)[C@@H]1CCCN(c2cccc3c2C(=O)N(Cc2ccncc2)C3=O)C1 [Compound I-12, (R)-1-(1,3-Dioxo-2-pyridin-4-ylmethyl-2,3-dihydro-1H-isoindol-4-yl)-piperidine-3-carboxylic acid 2-methylsulfanyl-benzylamide]
110	196 to 197	O=C(NCc1ccccc1F)[C@@H]1CCCN(c2cccc3c2C(=O)N(Cc2ccncc2)C3=O)C1 [Compound I-13, (R)-1-(1,3-Dioxo-2-pyridin-4-ylmethyl-2,3-dihydro-1H-isoindol-4-yl)-piperidine-3-carboxylic acid 2-fluoro-benzylamide]

The remaining lines, values behind:

Structure (SMILES)	IC50 (hP2X7) [nM]	melting point [°C]
O=C(NCC12CC3CC(CC(C3)C1)C2)[C@@H]1CCCN(c2cccc3c2C(=O)N(Cc2ccncc2)C3=O)C1 [Compound I-3, (R)-1-(1,3-Dioxo-2-pyridin-4-ylmethyl-2,3-dihydro-1H-isoindol-4-yl)-piperidine-3-carboxylic acid (adamantan-1-ylmethyl)-amide]	107	–
COc1ccccc1NC(=O)[C@@H]1CCCN(c2cccc3c2C(=O)N(Cc2ccncc2)C3=O)C1 [Compound I-4, (R)-1-(1,3-Dioxo-2-pyridin-4-ylmethyl-2,3-dihydro-1H-isoindol-4-yl)-piperidine-3-carboxylic acid (2-methoxy-phenyl)-amide]	724	–
O=C(NCc1cccs1)[C@@H]1CCCN(c2cccc3c2C(=O)N(Cc2ccncc2)C3=O)C1 [Compound I-8, (R)-1-(1,3-Dioxo-2-pyridin-4-ylmethyl-2,3-dihydro-1H-isoindol-4-yl)-piperidine-3-carboxylic acid (thiophen-2-ylmethyl)-amide]	437	193 to 194
O=C(NCc1ccccc1O)[C@@H]1CCCN(c2cccc3c2C(=O)N(Cc2ccncc2)C3=O)C1 [Compound I-11, (R)-1-(1,3-Dioxo-2-pyridin-4-ylmethyl-2,3-dihydro-1H-isoindol-4-yl)-piperidine-3-carboxylic acid 2-hydroxy-benzylamide]	100	181 to 182
O=C(NCC1COCCO1)[C@@H]1CCCN(c2cccc3c2C(=O)N(Cc2ccncc2)C3=O)C1 (stereo partly drawn) [Compound I-14, (R)-1-(1,3-Dioxo-2-pyridin-4-ylmethyl-2,3-dihydro-1H-isoindol-4-yl)-piperidine-3-carboxylic acid ([1,4]dioxan-2-ylmethyl)-amide]	912	186 to 187
O=C(NCC1CCCCC1)[C@@H]1CCCN(c2cccc3c2C(=O)N(Cc2ccncc2)C3=O)C1 [Compound I-15, (R)-1-(1,3-Dioxo-2-pyridin-4-ylmethyl-2,3-dihydro-1H-isoindol-4-yl)-piperidine-3-carboxylic acid cyclohexylmethyl-amide]	708	172 to 173
CS(=O)(=O)c1ccccc1CNC(=O)[C@@H]1CCCN(c2cccc3c2C(=O)N(Cc2ccncc2)C3=O)C1 [Compound I-16, (R)-1-(1,3-Dioxo-2-pyridin-4-ylmethyl-2,3-dihydro-1H-isoindol-4-yl)-piperidine-3-carboxylic acid 2-methanesulfonyl-benzylamide]	204	101 to 102
C[C@H](CO)N1Cc2c(ccc(Cl)c2NC(=O)Cc2ccc(F)c(C(F)(F)F)c2)C1=O [Compound I-17, N-[5-Chloro-2-((R)-2-hydroxy-1-methyl-ethyl)-1-oxo-2,3-dihydro-1H-isoindol-4-yl]-2-(4-fluoro-3-trifluoromethyl-phenyl)-acetamide]	174	–
C[C@H](CO)N1Cc2c(ccc(Cl)c2NC(=O)CC23CC4CC(CC(C4)C2)C3)C1=O [Compound I-18a, 2-Adamantan-1-yl-N-[5-chloro-2-((R)-2-hydroxy-1-methyl-ethyl)-1-oxo-2,3-dihydro-1H-isoindol-4-yl]-acetamide]	39.8	–
C[C@H](CO)N1Cc2c(NC(=O)CC34CC5CC(CC(C5)C3)C4)c(Cl)cc(Cl)c2C1=O [Compound I-18b, 2-Adamantan-1-yl-N-[5,7-dichloro-2-((R)-2-hydroxy-1-methyl-ethyl)-1-oxo-2,3-dihydro-1H-isoindol-4-yl]-acetamide]	537	–
COCC(C)N1Cc2c(NC(=O)Cc3ccc(F)c(C(F)(F)F)c3)cccc2C1=O (centres unmarked) [Compound I-19, 2-(4-Fluoro-3-trifluoromethyl-phenyl)-N-[2-(2-methoxy-1-methyl-ethyl)-1-oxo-2,3-dihydro-1H-isoindol-4-yl]-acetamide]	331	151 to 152
COCCN1Cc2c(ccc(Cl)c2NC(=O)Cc2ccc(F)c(C(F)(F)F)c2)C1=O [Compound I-20, N-[5-Chloro-2-(2-methoxy-ethyl)-1-oxo-2,3-dihydro-1H-isoindol-4-yl]-2-(4-fluoro-3-trifluoromethyl-phenyl)-acetamide]	891	–
